Tested on: MDA-MB 231 human breast carcinoma cells
Assay: Tumor cell migration direction under interstitial flow in 3D collagen I gel
Format: cell-based
Settings: Src kinase inhibited with PP2
Source text: Cell culture system design and verification of interstitial flow field. A microfluidic cell culture system to culture breast cancer cells (MDA-MB 231) in a 3D collagen I matrix and to subject these cells to a controlled level of interstitial flow was employed. The system consists of two channels separated by a region containing single cells suspended in collagen I gel (FIG. 16A). By applying a hydrostatic pressure gradient across the gel region, a consistent flow field is generated. FEM software was used to solve Brinkman's equation for flow through porous medium for our system geometry (FIG. 16B). […] From the bead tracking data, the hydraulic permeability of 2 mg/ml collagen I gel was determined to be 1.55×10-13 m2, similar to previously published values.
Interstitial flow induced a directional bias in cellular migration. […] To quantify the migration direction of cell populations, two metrics are presented. […] To determine directional bias of migration along streamlines, a “directional migration metric” was computed that scored cells with a +1 if they migrated in the direction of flow and a −1 if they migrated against the flow (FIG. 17E). […]
Cells were incubated overnight at 37° C. […] Devices were allowed to reach thermal equilibrium at 37° C. before imaging (see Supplementary Methods in SI Appendix for details on imaging and data quantification). […]

CC(C)(C)n1nc(-c2ccc(Cl)cc2)c2c(N)ncnc21 [PP2]
direction of cell migration under interstitial flow: cells migrated randomly, with no biased migration upstream or downstream
